Experimental data reported in ChEMBL document CHEMBL1201862, “PubChem BioAssay data set” (2004).
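In this assay, cells in 96-well plates receive the compound at five concentrations for 48 hours. Endpoints are linearly interpolated between the surrounding concentrations. GI50 marks 50% less growth.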 The source made the active and inactive calls. Cut-off read from the data, not from the text of the source: active = GI50 up to about 1.1 µM and inactive = higher. Peptide text beside a SMILES is read from it.

Experiments:
Assay in all cases: DTP human tumour cell line panel, 48 h
786-0 = test system: 786-0
BT-549 = test system: BT-549
COLO 205 = test system: COLO 205
DU-145 = test system: DU-145
EKVX = test system: EKVX
HCC 2998 = test system: HCC 2998
HCT-15 = test system: HCT-15
HL-60 = test system: HL-60
HOP-92 = test system: HOP-92
MDA-MB-435 = test system: MDA-MB-435
NCI-H226 = test system: NCI-H226
NCI-H522 = test system: NCI-H522
OVCAR-4 = test system: OVCAR-4
OVCAR-5 = test system: OVCAR-5
SNB-75 = test system: SNB-75
SW-620 = test system: SW-620
T47D = test system: T47D
U-251 = test system: U-251
UACC-257 = test system: UACC-257

Structure (SMILES) | GI50 (786-0) | GI50 (BT-549) | GI50 (COLO 205) | GI50 (DU-145) | GI50 (EKVX) | GI50 (HCC 2998) | GI50 (HCT-15) | GI50 (HL-60) | GI50 (HOP-92) | GI50 (MDA-MB-435) | GI50 (NCI-H226) | GI50 (NCI-H522) | GI50 (OVCAR-4) | GI50 (OVCAR-5) | GI50 (SNB-75) | GI50 (SW-620) | GI50 (T47D) | GI50 (U-251) | GI50 (UACC-257)
CCN(CC)Cc1cc(Nc2c3ccccc3nc3c2[nH]c2ccccc23)cc(CN(CC)CC)c1O | 0.216 µM (active) | 1.41 µM (inactive) | 0.366 µM (active) | 1.32 µM (inactive) | 1.45 µM (inactive) | 0.836 µM (active) | 0.684 µM | 2.86 µM (inactive) | 1.14 µM (inactive) | 0.701 µM (active) | 2.45 µM (inactive) | 0.624 µM (active) | 0.468 µM (active) | 2.01 µM (inactive) | 1.22 µM (inactive) | 0.266 µM (active) | 2.67 µM (inactive) | 0.513 µM (active) | 1.42 µM (inactive)
S=c1nc2[nH]c3ccc(Br)cc3c2n[nH]1 | 35.2 µM (inactive) | 50.2 µM (inactive) | 98.4 µM (inactive) | 85.3 µM (inactive) | 14.2 µM (inactive) | > 100 µM (inactive) | 22.1 µM | 12 µM (inactive) | > 100 µM (inactive) | 20.7 µM (inactive) | 94.6 µM (inactive) | 24.3 µM (inactive) | 25 µM (inactive) | > 100 µM (inactive) | 40.4 µM (inactive) | 53 µM (inactive) | > 100 µM (inactive) | 53.2 µM (inactive) | 62.5 µM (inactive)
CC(=O)OCC1=C(C(=O)O)N2C(=O)C(NC(=O)CSc3ccncc3)C2SC1 (stereo not given) | > 100 µM (inactive) | > 100 µM (inactive) | > 100 µM (inactive) | > 100 µM (inactive) | > 100 µM (inactive) | > 100 µM (inactive) | > 100 µM | > 100 µM (inactive) | > 100 µM (inactive) | > 100 µM (inactive) | > 100 µM (inactive) | > 100 µM (inactive) | – | > 100 µM (inactive) | > 100 µM (inactive) | > 100 µM (inactive) | > 100 µM (inactive) | > 100 µM (inactive) | > 100 µM (inactive)
CCOC(=O)/C(C#N)=C/c1ccc2c(-c3c(OCC)ccc4cc(/C=C(\C#N)C(=O)OCC)ccc34)c(OCC)ccc2c1 | > 100 µM (inactive) | > 100 µM (inactive) | > 100 µM (inactive) | > 100 µM (inactive) | > 100 µM (inactive) | > 100 µM (inactive) | > 100 µM | > 100 µM (inactive) | > 100 µM (inactive) | > 100 µM (inactive) | > 100 µM (inactive) | > 100 µM (inactive) | > 100 µM (inactive) | > 100 µM (inactive) | > 100 µM (inactive) | > 100 µM (inactive) | > 100 µM (inactive) | > 100 µM (inactive) | > 100 µM (inactive)
CN(C)c1ccc(/N=N/c2ccccn2)cc1 | 49 µM (inactive) | 81.3 µM (inactive) | 6.58 µM (inactive) | 48.6 µM (inactive) | 11.9 µM (inactive) | 14.1 µM (inactive) | 25.2 µM | 4.26 µM (inactive) | 69.8 µM (inactive) | 23.4 µM (inactive) | 32 µM (inactive) | 38.7 µM (inactive) | 36.2 µM (inactive) | > 100 µM (inactive) | 52.1 µM (inactive) | 17.5 µM (inactive) | 11.2 µM (inactive) | 4.66 µM (inactive) | 3.89 µM (inactive)
COc1ccc(/C(CCl)=C(\Nc2ccccc2)c2ccc(OC)c(OC)c2)cc1OC | > 100 µM (inactive) | > 100 µM (inactive) | > 100 µM (inactive) | > 100 µM (inactive) | > 100 µM (inactive) | > 100 µM (inactive) | > 100 µM | 27.2 µM (inactive) | 55.1 µM (inactive) | > 100 µM (inactive) | 68.9 µM (inactive) | 94 µM (inactive) | 75.5 µM (inactive) | > 100 µM (inactive) | > 100 µM (inactive) | > 100 µM (inactive) | 27.7 µM (inactive) | > 100 µM (inactive) | > 100 µM (inactive)
CN(CCNC(=O)c1cn(C)c2c1ccc1cc(Cl)c(Cl)cc12)CCNC(=O)c1cn(C)c2c1ccc1cc(Cl)c(Cl)cc12 | 1.65 µM (inactive) | 19.7 µM (inactive) | 1.64 µM (inactive) | 1.82 µM (inactive) | 2.7 µM (inactive) | 1.69 µM (inactive) | 1.74 µM | 1.32 µM (inactive) | 2.17 µM (inactive) | 1.77 µM (inactive) | 24.7 µM (inactive) | 1.97 µM (inactive) | 2.5 µM (inactive) | 2.79 µM (inactive) | 1.58 µM (inactive) | 1.8 µM (inactive) | 1.93 µM (inactive) | 1.77 µM (inactive) | 2.41 µM (inactive)
C=C(C(=O)OC1C(CO)OC(OCC2CC[C@@H]3C[C@]4(OC(=O)C3=C)C(C)=CC(=O)C24)C(O)C1O)[C@@H]1CCC(CO)C2C(=O)C=C(C)[C@@]2(O)C1 (stereo not given in full) | 1.63 µM (inactive) | 1.39 µM (inactive) | 0.28 µM (active) | 3.61 µM (inactive) | 2.42 µM (inactive) | 1.61 µM (inactive) | 0.631 µM | 0.592 µM (active) | 2.63 µM (inactive) | 2.09 µM (inactive) | 6.58 µM (inactive) | 0.243 µM (active) | 4.01 µM (inactive) | 2.7 µM (inactive) | 13.8 µM (inactive) | 0.603 µM (active) | 2.55 µM (inactive) | 4.68 µM (inactive) | 1.84 µM (inactive)
CCC(C)C(NC(=O)C(NC(=O)C(CC(N)=O)NC(=O)CN)C(C)O)C(=O)NC(C(=O)NC(C)C(=O)NC(C(=O)NC(CCC(=O)O)C(=O)NC(CC(C)C)C(=O)NC(CC(=O)O)C(=O)NC(C(=O)NC(Cc1ccc(O)cc1)C(=O)N1CCCC1C(=O)O)C(C)O)C(C)C)C(C)C (stereo not given) (H-GNTIVAVELDTYP-OH; configuration not given here) | > 50 µM (inactive) | > 50 µM (inactive) | > 50 µM (inactive) | > 50 µM (inactive) | > 50 µM (inactive) | > 50 µM (inactive) | > 50 µM | > 50 µM (inactive) | > 50 µM (inactive) | > 50 µM (inactive) | > 50 µM (inactive) | > 50 µM (inactive) | > 50 µM (inactive) | > 50 µM (inactive) | > 50 µM (inactive) | > 50 µM (inactive) | > 50 µM (inactive) | > 50 µM (inactive) | > 50 µM (inactive)
COC(=O)c1c(C)cccc1/C=C1/Cc2c(C)cccc2C1=O | 88.7 µM (inactive) | 28.2 µM (inactive) | > 10 µM (inactive) | > 100 µM (inactive) | > 100 µM (inactive) | > 100 µM (inactive) | > 100 µM | > 100 µM (inactive) | 58.1 µM (inactive) | > 100 µM (inactive) | > 100 µM (inactive) | > 100 µM (inactive) | > 100 µM (inactive) | > 100 µM (inactive) | > 100 µM (inactive) | > 100 µM (inactive) | 50.8 µM (inactive) | 90.6 µM (inactive) | 3.1 µM (inactive)
OCCN(CCO)CCn1cnc2c(NCc3ccccc3)ncnc21 | > 100 µM (inactive) | > 100 µM (inactive) | > 100 µM (inactive) | > 100 µM (inactive) | > 100 µM (inactive) | > 100 µM (inactive) | > 100 µM | > 100 µM (inactive) | > 100 µM (inactive) | > 100 µM (inactive) | > 100 µM (inactive) | > 100 µM (inactive) | > 100 µM (inactive) | > 100 µM (inactive) | > 100 µM (inactive) | > 100 µM (inactive) | > 100 µM (inactive) | > 100 µM (inactive) | > 100 µM (inactive)
Cc1ccc([S@+]([O-])c2occc2C=O)cc1 | 3.95 µM (inactive) | 12 µM (inactive) | 14.9 µM (inactive) | 19 µM (inactive) | 19.8 µM (inactive) | 14.5 µM (inactive) | 3.49 µM | 1.8 µM (inactive) | 3.27 µM (inactive) | 7.55 µM (inactive) | 19.4 µM (inactive) | 15.4 µM (inactive) | 9.98 µM (inactive) | 19.2 µM (inactive) | 12.1 µM (inactive) | 1.93 µM (inactive) | 2.43 µM (inactive) | 12.9 µM (inactive) | 12.4 µM (inactive)
CCOC(=O)c1cc2c([N+](=O)[O-])c(N)ccc2s1 | > 100 µM (inactive) | > 100 µM (inactive) | > 100 µM (inactive) | > 100 µM (inactive) | 57 µM (inactive) | > 100 µM (inactive) | > 100 µM | > 100 µM (inactive) | > 100 µM (inactive) | > 100 µM (inactive) | > 100 µM (inactive) | > 100 µM (inactive) | > 100 µM (inactive) | > 100 µM (inactive) | 72.3 µM (inactive) | > 100 µM (inactive) | > 100 µM (inactive) | > 100 µM (inactive) | > 100 µM (inactive)
N=C(N)SCc1ccc(Cl)c2ccccc12.O=[N+]([O-])c1c(O)c(Cl)cc(Cl)c1Cl | 11.3 µM (inactive) | 14.8 µM (inactive) | 10.6 µM (inactive) | 14 µM (inactive) | 7.03 µM (inactive) | 2.33 µM (inactive) | 14.3 µM | 4.38 µM (inactive) | 5.89 µM (inactive) | 8.38 µM (inactive) | 12 µM (inactive) | 4.56 µM (inactive) | 4.65 µM (inactive) | 13 µM (inactive) | 11.1 µM (inactive) | 12.2 µM (inactive) | 4.19 µM (inactive) | 12.9 µM (inactive) | 4.72 µM (inactive)
